Test: Human HepG2 cell viability assay in 384 well format
Type: toxicity, cell-based
Parameters: dose 125 nL, time 70.5 hour; cytotoxicity at 70.5 h: concentration not given beside the values
Details: HepG2 cells, read-out: Inhibition

Row | SMILES | cytotoxicity at 70.5 h [%]
1 | CC(=O)c1ccccc1-c1cc(C(=O)O)cc(S(=O)(=O)NC(C)C)c1 | -14.9
2 | CC(C)C[C@@H](C(N)=O)n1cc(-c2cncnc2)nn1 | -8.12
3 | OCc1ccc(CN(CCCn2ccnc2)Cc2ccncc2)o1 | -4.15
4 | O=C(c1cccc(-c2ccc(F)cc2)c1)N1CCCC(O)(CO)CC1 (stereo not drawn) | 9.52
5 | CCC(=O)N1CCN(C(=O)c2ccc(OC)o2)[C@H]2CS(=O)(=O)C[C@H]21 | -4.25
6 | CN1CCN(C(=O)N2CC[C@@](O)(c3ccccc3)[C@H]3CCCC[C@@H]32)CC1 | -5.89
7 | Cc1cc(C(F)(F)F)nc(CCNc2nc(C)nc3sccc23)n1 | 15.7
8 | CN(Cc1cc(C(C)(C)C)n[nH]1)Cc1c[nH]nc1-c1ccc(F)cc1 | -4.87
9 | c1cncc(OC2CCN(CCn3cc4ccccc4n3)CC2)c1 | -25.2
10 | COc1ccccc1OC1CN(C(=O)Cc2c(C)nc3ccccn23)C1 | 2.44
11 | CN1CCCCC1Cc1nc2c(cc1C(N)=O)CCC2 (stereo not drawn) | 13.7
12 | OCc1csc(N2CCCC(CO)(Cc3cccc(Cl)c3)C2)n1 (stereo not drawn) | 12.4
13 | N#Cc1ccccc1C(=O)N1C[C@H]2CC[C@@H]1CN(c1ncccn1)C2 | 18.3
14 | COc1ccc([C@@H]2CN(c3cc(OC)nc(N)n3)C[C@H]2N(C)C)cc1 | -3.33
15 | COCc1nc(CNC2CCN(C(C)C)CC2)no1 | -8.15
16 | CC(C)c1noc(-c2ccc(N(C)C3CCOCC3)nc2)n1 | 10.8
17 | CN(C)C(C(=O)N1CCN(CCn2cccc2)CC1)c1ccc(F)cc1 (stereo not drawn) | -3.42
18 | c1ccc2c(c1)CC(N1CCCC(NCc3cccc4nonc34)C1)C2 (stereo not drawn) | -9.28
19 | O=C(N[C@H]1CN2CCC1CC2)c1cc(Cn2cnc3ccccc32)[nH]n1 | -5.02
20 | Cc1cc(CN2CCC(c3cc(Cc4ccccc4)n[nH]3)CC2)[nH]n1 | -16.6
21 | O=c1c2ccc(Cl)cc2ncn1CCCN1CCCCC1CO (stereo not drawn) | -15.5
22 | N[C@H]1CN(C(=O)Cc2ccc(Cl)c(Cl)c2)C[C@@H]1C1CC1 | 13.6
23 | CCCn1c(C)c(CC(=O)NCCC(N)=O)c2c1CC(C)(C)CC2=O | 11.1
24 | c1cc(-c2cnccn2)cc(-c2ccn(CCCN3CCCCC3)n2)c1 | -7.3
25 | Cc1cc(C)c2c(N(C)CC3COCCO3)ncnc2n1 (stereo not drawn) | -8.16
26 | O=C(O)c1ccccc1-c1c(-c2ccccc2)ncn1CC1CCCO1 (stereo not drawn) | 17.5

Row | SMILES | cytotoxicity at 70.5 h [%]
27 | CN(C)c1ccc(-c2ccnc3c2ccn3C)nn1 | 18.4
28 | O=C1CCC2(CCN(Cc3cscn3)CC2)CN1CC1CCCO1 (stereo not drawn) | 10.4
29 | CCc1c(C)nn(CCNC(=O)c2cnn[nH]2)c1C | -5.63
30 | Cc1ccccc1C1CCN(CCn2cc(-c3nccs3)nn2)C1 (stereo not drawn) | 49.5
31 | CCc1cc(N2CCS(=O)(=O)CC2)n2nc(C)c(C)c2n1 | -5.71
32 | N[C@@H](Cc1c[nH]cn1)C(=O)N1CCC(Oc2ccc(Cl)cc2)CC1 | 28.2
33 | C[C@@H]1CN(Cc2cc(C3CCCCC3)no2)CC[C@]1(C)O | -6.92
34 | N#Cc1cccc(S(=O)(=O)N2CCCCC2CCN2CCCC2)c1 (stereo not drawn) | -3.74
35 | CS(=O)(=O)N1CC[C@]2(O)CCN(c3ccnc(N)n3)C[C@@H]2C1 | -0.327
36 | COCCN1CCC2(CCC1=O)CN(c1ccnc(SC)n1)CCN2C (stereo not drawn) | -4.09
37 | Cc1cc(CN(C)c2nc(-c3ccco3)nc3c2CCN(C)CC3)on1 | -22.6
38 | CSc1ncc(C(=O)N2CCN(c3ccccc3C)CC2C)cn1 (stereo not drawn) | -2.82
39 | COCCC(=O)N[C@H]1CC[C@H](Nc2nccc(-c3ccncc3)n2)C1 | -6.41
40 | OC1CCN(C2CCN(c3ccc(Cn4ccnc4)cn3)CC2)CC1 | -17.9
41 | c1cnn(CC2CCN(c3nc(C4CC4)nc4c3CCNCC4)CC2)c1 | -0.96
42 | CNC(=O)[C@@H]1C[C@@H](NC(=O)CCCc2cccs2)CN1C1CCOCC1 | -1.92
43 | CN(Cc1cnc2ccccc2c1)C(=O)C(c1ccccc1F)N(C)C (stereo not drawn) | -10.3
44 | COc1ccc(C(=O)N2C[C@@H](C(=O)O)[C@H](c3ccccc3)C2)c(O)c1 | -8.78
45 | CN(C)CC(=O)NC1CC(C)(C)Cc2nc(C(C)(C)C)ncc21 (stereo not drawn) | 46.7
46 | Cc1c[nH]c(CN(C)C(=O)[C@@]23CNC[C@@H]2CN(c2ncccn2)C3)n1 | -14
47 | Cc1nccn1CCN(C)c1nc(-c2cccnc2)nc2c1CCNC2 | -3.49
48 | CCN1CCc2[nH]cnc2C12CCN(c1ncc(C(=O)O)cc1Cl)CC2 | 3.78
49 | CN(C)c1nc(NCCc2cnccn2)ncc1F | -9.9
50 | COc1ccc(N2CCN(CC[C@H](O)c3ccccc3)CC2=O)cc1 | -12.7
51 | Cc1ccc(C)c2c(C)c(C(=O)NCCCn3ccnn3)[nH]c12 | 43.6
52 | CCCS(=O)(=O)N1CCC2(CCC(=O)N(CCc3ccccc3)C2)CC1 | -10.1

Row | SMILES | cytotoxicity at 70.5 h [%]
53 | CCSCCNC(=O)c1cnc(-c2ccccc2)nc1O | 7.82
54 | CCCN1CCN(C(=O)c2ccc3ccccc3n2)[C@H]2CS(=O)(=O)C[C@H]21 | 13.2
55 | O=C(CSc1ccccc1)Nc1cnn(CC(=O)N2CCCO2)c1 | -2.01
56 | Cc1nc(CN2C[C@@H](NS(=O)(=O)N(C)C)[C@H](C(C)C)C2)cs1 | -1.78
57 | Cc1cccc(-c2cc(-c3c(C)nn(CCO)c3C)c(C#N)c(N)n2)c1 | -11.4
58 | Cc1ccccc1C(C(=O)N(C)Cc1cnn(C)c1)N(C)C (stereo not drawn) | -1.08
59 | Cc1ccc(SCCN(C)C(=O)c2cn(CCN)nn2)cc1 | 16.5
60 | O=C(Cn1ccc2ccccc21)NCc1cc(N2CCOCC2)ncn1 | -1.81
61 | CCc1nc(CN(C)C(=O)c2cc(NC(C)=O)ccc2Cl)no1 | 18.6
62 | CN1CC2(CCCN(Cc3nnc(-c4ccccc4)o3)CC2)OC1=O (stereo not drawn) | -15
63 | CC(=O)N[C@@H]1Cc2ccccc2[C@H]1Nc1ccncn1 | -5.99
64 | CCNc1ncc(C(=O)NCc2csc(C)n2)cn1 | 1.23
65 | Cc1ccc(N2CCCC(c3[nH]ncc3Cc3ccccc3)C2)nn1 (stereo not drawn) | 7.65
66 | CCc1c(C)nc(N)nc1NCCSCc1[nH]cnc1C | -2.58
67 | COc1cc(F)c(CN2CC[C@@](O)(C3CC3)[C@H](C)C2)cc1OC | -3.1
68 | CCCn1ncc(C(=O)N2CCN([C@H]3CCCC[C@@H]3O)CC2)c1C | -0.657
69 | CC(C)(C)c1ncc2c(n1)CN(C(=O)c1ccc3[nH]cnc3c1)C2 | -3.17
70 | COc1ccccc1OCCCc1cccc(C#N)n1 | -1.85
71 | COC[C@]1(O)CCN(c2cc(OC)ncn2)CC1(C)C | -11.7
72 | CN(C)CCNC(=O)c1ccc(OC2CCN(C3CCC3)CC2)c(Cl)c1 | -5.59
73 | O=C(c1ccccc1C(F)(F)F)N1C[C@@H](CN2CCOCC2)[C@@H](CO)C1 | -6.68
74 | CCC(=O)N1CCc2[nH]cnc2C12CCN(CC1CCOC1)CC2 (stereo not drawn) | -9.55
75 | CS(=O)(=O)N1CCC2(CCCN(CCCc3ccccc3)C2=O)C1 (stereo not drawn) | -6.93
76 | Cc1ccc(CN(C)Cc2cc(C3CC3)[nH]n2)c(O)n1 | -5.35
77 | COCC(NC(=O)c1cnc(-c2ccncc2)nc1)c1ccnn1C (stereo not drawn) | -5.01
78 | O=C(NCc1ccc2c(c1)CCCO2)c1cn2c(n1)CNCC2 | 5.37
